Measured values published in ChEMBL document CHEMBL1201862, “PubChem BioAssay data set” (2004).
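96-well plates; 48 h exposure; 5 concentrations. Endpoints by linear interpolation between flanking doses. Not reached: highest tested concentration assigned. GI50 marks 50% less growth.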 Activity calls are given as the source filed them. Rule as the data show it: active = GI50 up to about 1.1 µM and inactive = higher.

Assays:
Assay in all cases: growth of human tumour cells (NCI), 48 h
786-0 = system: 786-0
COLO 205 = system: COLO 205
HOP-62 = system: HOP-62
KM12 = system: KM12
M14 = system: M14
MCF7 = system: MCF7
NCI-H23 = system: NCI-H23
OVCAR-3 = system: OVCAR-3
OVCAR-4 = system: OVCAR-4
OVCAR-8 = system: OVCAR-8
RPMI-8226 = system: RPMI-8226
SK-MEL-5 = system: SK-MEL-5
SK-OV-3 = system: SK-OV-3
SNB-19 = system: SNB-19
SR = system: SR
T47D = system: T47D
UACC-62 = system: UACC-62
HT-29 = system: HT-29
IGROV-1 = system: IGROV-1

Row | Structure (SMILES) | GI50 (786-0) | GI50 (COLO 205) | GI50 (HOP-62) | GI50 (KM12) | GI50 (M14) | GI50 (MCF7) | GI50 (NCI-H23) | GI50 (OVCAR-3) | GI50 (OVCAR-4) | GI50 (OVCAR-8) | GI50 (RPMI-8226) | GI50 (SK-MEL-5) | GI50 (SK-OV-3) | GI50 (SNB-19) | GI50 (SR) | GI50 (T47D) | GI50 (UACC-62) | GI50 (HT-29) | GI50 (IGROV-1)
1 | COc1cc(C(=O)Nc2nnc(S(N)(=O)=O)s2)cc(OC)c1OC | > 100 µM (inactive) | > 100 µM (inactive) | > 100 µM (inactive) | > 100 µM (inactive) | > 100 µM (inactive) | > 100 µM (inactive) | > 100 µM (inactive) | > 100 µM (inactive) | > 100 µM (inactive) | > 100 µM (inactive) | > 100 µM (inactive) | > 100 µM (inactive) | > 100 µM (inactive) | > 100 µM (inactive) | > 100 µM (inactive) | > 100 µM (inactive) | > 100 µM (inactive) |  | 
2 | C=C1CC(CNc2cc(Cl)nc(N)n2)C1 | > 100 µM (inactive) | > 100 µM (inactive) | > 100 µM (inactive) | > 100 µM (inactive) |  | > 100 µM (inactive) | > 100 µM (inactive) | 95.7 µM (inactive) | 57.1 µM (inactive) | > 100 µM (inactive) | 49.9 µM (inactive) | 50.5 µM (inactive) | 44.9 µM (inactive) | > 100 µM (inactive) | > 100 µM (inactive) | > 10 µM (inactive) | > 100 µM (inactive) | > 100 µM (inactive) | > 100 µM (inactive)
3 | O=c1oc2ccccc2c(-c2ccc(O)cc2)c1Oc1ccccc1 | 23.1 µM (inactive) | 29.4 µM (inactive) | 24.1 µM (inactive) | 23.6 µM (inactive) | 9.16 µM (inactive) | 11.2 µM (inactive) | 6.32 µM (inactive) | 17.5 µM (inactive) | 20.4 µM (inactive) |  | 28.1 µM (inactive) | 14.1 µM (inactive) | 34.8 µM (inactive) | 17.7 µM (inactive) | 41.8 µM (inactive) | > 100 µM (inactive) | 5.18 µM (inactive) | > 52.1 µM (inactive) | 6.44 µM (inactive)
4 | Cc1cc(CN2CCCCC2)c(O)c(CN2CCCCC2)c1 | > 100 µM (inactive) | > 100 µM (inactive) | > 100 µM (inactive) | > 100 µM (inactive) | > 100 µM (inactive) | > 100 µM (inactive) | > 100 µM (inactive) | > 100 µM (inactive) | > 100 µM (inactive) | > 100 µM (inactive) | 22.8 µM (inactive) | > 100 µM (inactive) | > 100 µM (inactive) | > 100 µM (inactive) | > 100 µM (inactive) | > 100 µM (inactive) | > 100 µM (inactive) | > 100 µM (inactive) | > 100 µM (inactive)
5 | C=CCOC(=O)[C@@H]1C[C@@H](OC(C)(C)C)CN1C(=O)[C@@H]1[C@H]2OC(C)(C)O[C@H]2CN1C(=O)OCC1c2ccccc2-c2ccccc21 | 5.46 µM (inactive) | 18.1 µM (inactive) | 1.75 µM (inactive) | 2.86 µM (inactive) | 19.7 µM (inactive) | 48.4 µM (inactive) | 17.6 µM (inactive) | 17.9 µM (inactive) | 17.2 µM (inactive) | 5.87 µM (inactive) | 6.19 µM (inactive) | 18.9 µM (inactive) | 17.2 µM (inactive) | 16.9 µM (inactive) | 8.05 µM (inactive) | 19.4 µM (inactive) | 17.7 µM (inactive) | 17.2 µM (inactive) | 17 µM (inactive)
6 | CS(=O)(=O)Nc1ccc2ccccc2c1 | > 100 µM (inactive) | > 100 µM (inactive) | 95.7 µM (inactive) | > 100 µM (inactive) | > 100 µM (inactive) | > 100 µM (inactive) | > 100 µM (inactive) | > 100 µM (inactive) | > 100 µM (inactive) | > 100 µM (inactive) | > 100 µM (inactive) | > 100 µM (inactive) | > 100 µM (inactive) | > 100 µM (inactive) | > 100 µM (inactive) | > 100 µM (inactive) | > 100 µM (inactive) | > 100 µM (inactive) | > 100 µM (inactive)
7 | O=c1c2ccccc2c2ccccc2c(=O)n1Cc1ccc2c(c1)OCO2 | 27 µM (inactive) | 34 µM (inactive) | 62.1 µM (inactive) | 19.5 µM (inactive) | 26.9 µM (inactive) | 38.9 µM (inactive) | 24.7 µM (inactive) | 24.6 µM (inactive) | > 67.3 µM (inactive) | 45.7 µM (inactive) | 15.9 µM (inactive) | 20.3 µM (inactive) | 41.4 µM (inactive) | 52.1 µM (inactive) | 4.91 µM (inactive) | 39.9 µM (inactive) | 21.6 µM (inactive) | 22.6 µM (inactive) | 8.51 µM (inactive)
8 | C=C1C(=O)O[C@H]2C/C(C)=C/CC[C@]3(C)CCC[C@](C)(CC[C@@H]12)O3 | 5.77 µM (inactive) | 6.4 µM (inactive) | 20.5 µM (inactive) | 8.43 µM (inactive) |  | 13 µM (inactive) | 11.3 µM (inactive) | 9.53 µM (inactive) | 15.1 µM (inactive) | 7.64 µM (inactive) | 5.93 µM (inactive) | 6.44 µM (inactive) | 22.2 µM (inactive) | 15.8 µM (inactive) | 4.61 µM (inactive) | 9.71 µM (inactive) | 8.69 µM (inactive) | 8.26 µM (inactive) | 6.59 µM (inactive)
9 | Cc1nn(-c2ccccc2)c2c1N=C(C(=O)O)CC(c1ccccc1)=N2 | > 10 µM (inactive) | > 10 µM (inactive) | > 10 µM (inactive) | > 10 µM (inactive) | > 10 µM (inactive) | > 10 µM (inactive) | > 10 µM (inactive) | > 10 µM (inactive) | > 10 µM (inactive) | > 10 µM (inactive) | > 10 µM (inactive) | > 10 µM (inactive) | > 10 µM (inactive) | > 10 µM (inactive) | > 10 µM (inactive) | > 10 µM (inactive) | > 10 µM (inactive) | > 10 µM (inactive) | > 10 µM (inactive)
10 | COC(=O)[C@]1(c2cc3ccccc3n2S(=O)(=O)c2ccccc2)CC2CN(C(C)=O)C1CC2=O (some centres undefined) | 1.28 µM (inactive) | 2.42 µM (inactive) | 5.08 µM (inactive) | 2.69 µM (inactive) | 1.96 µM (inactive) | 1.69 µM (inactive) | 3.1 µM (inactive) | 1.99 µM (inactive) | 3.58 µM (inactive) | 3.43 µM (inactive) | 0.65 µM (active) | 3.27 µM (inactive) | 8.13 µM (inactive) | 3.26 µM (inactive) | 1.59 µM (inactive) | 2.16 µM (inactive) | 1.67 µM (inactive) | 1.96 µM (inactive) | 2.57 µM (inactive)
11 | COC(=O)Nc1nc2cc(S(=O)(=O)Nc3ccccn3)ccc2[nH]1 | 49.8 µM (inactive) | 32.7 µM (inactive) | 73.3 µM (inactive) | 32.1 µM (inactive) | 78.9 µM (inactive) | 28.6 µM (inactive) | 50.1 µM (inactive) | 32.4 µM (inactive) | 54.1 µM (inactive) | 46.5 µM (inactive) | 14 µM (inactive) | 42.1 µM (inactive) | 44.5 µM (inactive) | 64.4 µM (inactive) | 21.1 µM (inactive) | 44.2 µM (inactive) | 42.6 µM (inactive) | 43.1 µM (inactive) | 27.9 µM (inactive)
12 | N=C(N)NS(=O)(=O)c1ccc(NNc2c3ccccc3nc3ccccc23)cc1 | 10.1 µM (inactive) | 12.6 µM (inactive) | 6.87 µM (inactive) | 11.2 µM (inactive) | 12.8 µM (inactive) | 2.48 µM (inactive) | 9.29 µM (inactive) | 4.04 µM (inactive) | 4.85 µM (inactive) | 6.38 µM (inactive) | 12.6 µM (inactive) | 9.31 µM (inactive) | 11.1 µM (inactive) | 8.34 µM (inactive) | 0.596 µM (active) | 5.73 µM (inactive) | 11.9 µM (inactive) | 7.28 µM (inactive) | 15.2 µM (inactive)
13 | C/C(=N\O)c1cccc(Nc2c3ccccc3nc3occc23)c1 | 13.4 µM (inactive) | 5.09 µM (inactive) | 3.13 µM (inactive) | 6.11 µM (inactive) | 8.15 µM (inactive) | 2.39 µM (inactive) | 4.99 µM (inactive) | 4.73 µM (inactive) | 1.8 µM (inactive) | 13.7 µM (inactive) | 3.07 µM (inactive) | 3.07 µM (inactive) | 10.4 µM (inactive) | 17.1 µM (inactive) | 2.79 µM (inactive) | 2.56 µM (inactive) | 3.42 µM (inactive) | 9.1 µM (inactive) | 2.77 µM (inactive)
14 | O=C(OCc1ccccc1)N1CCNCCNCCN(C(=O)OCc2ccccc2)CCNCC1 | 14.3 µM (inactive) | 13.6 µM (inactive) | 36.7 µM (inactive) | 29.6 µM (inactive) | 16.6 µM (inactive) | 17.8 µM (inactive) |  | 56.9 µM (inactive) | 41 µM (inactive) | 17.3 µM (inactive) | 19.5 µM (inactive) | 14.1 µM (inactive) | > 100 µM (inactive) | 68.5 µM (inactive) | 14.1 µM (inactive) | 17.1 µM (inactive) | 17.7 µM (inactive) | 12.1 µM (inactive) | 32.1 µM (inactive)
15 | COc1cc([N+](=O)[O-])c(S(=O)(=O)O)cc1NS(=O)(=O)c1ccc(C)cc1 | > 100 µM (inactive) | > 100 µM (inactive) | > 100 µM (inactive) | > 100 µM (inactive) | > 100 µM (inactive) | > 100 µM (inactive) | > 100 µM (inactive) | > 100 µM (inactive) | > 100 µM (inactive) | > 100 µM (inactive) | > 100 µM (inactive) | > 100 µM (inactive) | > 100 µM (inactive) | > 100 µM (inactive) | > 100 µM (inactive) | > 100 µM (inactive) | > 100 µM (inactive) | > 100 µM (inactive) | > 100 µM (inactive)
